Test [1] deals with T1, Plasminogen (Homo sapiens, UniProt P00747). Nature of the test: (§1) Compound was evaluated for its binding affinity against plasmin.
Test [2] addresses Serine protease 1 (Homo sapiens, UniProt P07477). As to the kind of experiment: Compound was evaluated for its binding affinity against trypsin.
For test [3], the target named is T1, Plasminogen. Described as §1. This is another data set of the same source.
The target in test [4] is Kallikrein-1 (Homo sapiens, UniProt P06870). Nature of the test: Compound was evaluated for its binding affinity against kallikrein.
Chain of Kallikrein-1 (P06870 whole entry): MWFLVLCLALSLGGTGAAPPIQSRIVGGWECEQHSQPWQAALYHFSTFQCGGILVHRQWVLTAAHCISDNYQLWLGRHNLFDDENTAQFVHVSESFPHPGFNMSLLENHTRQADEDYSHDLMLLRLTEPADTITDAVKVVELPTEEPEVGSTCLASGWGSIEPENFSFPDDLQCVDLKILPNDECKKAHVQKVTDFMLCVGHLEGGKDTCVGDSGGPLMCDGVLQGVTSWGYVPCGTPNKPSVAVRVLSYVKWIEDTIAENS
Test [5] deals with Prothrombin (Homo sapiens, UniProt P00734). Nature of the test: Compound was evaluated for its binding affinity against thrombin.

Here are results for six compounds from ChEMBL document CHEMBL1132325, “4-Heterocyclohexanone-based inhibitors of the serine protease plasmin” (J Med Chem, 1999).

T1 sequence (P00747 97-580 limits assumed): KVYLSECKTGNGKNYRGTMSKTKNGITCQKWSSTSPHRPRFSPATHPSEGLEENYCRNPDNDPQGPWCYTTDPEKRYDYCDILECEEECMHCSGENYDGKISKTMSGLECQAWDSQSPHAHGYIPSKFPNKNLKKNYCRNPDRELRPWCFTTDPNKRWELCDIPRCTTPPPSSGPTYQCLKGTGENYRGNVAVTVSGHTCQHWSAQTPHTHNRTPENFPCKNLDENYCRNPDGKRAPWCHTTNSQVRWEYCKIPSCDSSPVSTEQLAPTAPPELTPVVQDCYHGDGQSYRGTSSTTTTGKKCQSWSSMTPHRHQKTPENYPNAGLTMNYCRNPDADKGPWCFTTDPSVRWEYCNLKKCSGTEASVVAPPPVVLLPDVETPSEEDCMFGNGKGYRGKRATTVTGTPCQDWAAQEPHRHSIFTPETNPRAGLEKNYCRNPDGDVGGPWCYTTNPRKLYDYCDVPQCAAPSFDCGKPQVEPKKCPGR
T1 sequence (P00747 581-810 limits assumed): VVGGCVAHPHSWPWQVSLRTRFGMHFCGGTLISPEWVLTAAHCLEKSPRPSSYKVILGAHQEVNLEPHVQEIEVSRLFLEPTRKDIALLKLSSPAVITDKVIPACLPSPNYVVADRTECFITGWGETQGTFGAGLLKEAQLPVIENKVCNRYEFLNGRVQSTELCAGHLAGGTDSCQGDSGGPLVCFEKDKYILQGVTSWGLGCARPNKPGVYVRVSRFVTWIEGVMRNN
Chain of Serine protease 1 (P07477 whole entry): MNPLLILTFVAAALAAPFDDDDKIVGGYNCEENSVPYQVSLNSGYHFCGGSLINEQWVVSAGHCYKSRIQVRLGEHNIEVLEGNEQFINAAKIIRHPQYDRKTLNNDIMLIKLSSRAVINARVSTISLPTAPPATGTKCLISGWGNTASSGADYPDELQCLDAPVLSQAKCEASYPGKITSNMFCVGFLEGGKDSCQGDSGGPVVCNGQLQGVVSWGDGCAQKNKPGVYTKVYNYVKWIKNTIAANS

In turn, `CCC(C)[C@@H](N)C(=O)N[C@@H](Cc1ccccc1)C(=O)N(CCCCCCN)C1CCCCC1` (some centres not stated) gave an inhibitory constant (Ki) in test [1] of 520 µM.

In the case of `CC[C@@H](C)[C@@H](N)C(=O)N[C@@H](Cc1ccccc1)C(=O)N(CCCCCCN)C1CSCCC1=O` (some centres not stated), the figures for the Ki in test [2], in test [3] and in test [1] were 1700 µM, 50 µM and 130 µM, respectively.

`CC[C@H](C)[C@@H](N)C(=O)N[C@@H](Cc1ccccc1)C(=O)N(CCCCCCN)C1CSCCC1=O` (some centres not stated): the Ki was determined as 630 µM in test [4] and 720 µM in test [5].

As for `NCCCCCCN(CCCCCCN)C1CSCCC1=O` (configuration not stated), the Ki in test [2] was 1400 µM; in test [3], 400 µM; in test [4], greater than 10000 µM; in test [5] it was greater than 10000 µM.

Take `CC[C@@H](C)[C@@H](N)C(=O)N[C@@H](Cc1ccccc1)C(=O)NC1CSCCC1=O` (stereo in doubt; form 1): the Ki in test [1] was found to be 16000 µM.

In turn, `CC[C@@H](C)[C@@H](N)C(=O)N[C@@H](Cc1ccccc1)C(=O)NC1CSCCC1=O` (stereo in doubt; form 2) came in with a Ki in test [1] of 9000 µM.

By Ki is commonly meant a dissociation constant, usually derived from enzyme kinetics or from competition with a known ligand.
